Laboratory results: paper PMC12698583, “Efficacy of sulfonamides targeting malic enzyme in an animal model of Chagas disease” (Frontiers in Pharmacology, 2025)

Tests used:
[1] = biological target: T. cruzi malic enzyme (TcME) (Trypanosoma cruzi, UniProt Q4DJ68); experiment: Malic enzyme (TcME) inhibition assay, diaphorase/resazurin coupled; assay type: biochemical; settings: concentration necessary to inhibit 50% of T. cruzi Malic enzyme enzymatic activity
Procedure: The TcME inhibition assay was performed as previously described, with minor modifications ([Mercaldi et al., 2021]). Briefly, a coupled assay with the enzyme diaphorase and resorufin fluorescence (Ex 545 nm/Em 600 nm) was recorded every 30 s for 6 min in a CLARIOstar plate reader (BMG LabTech). The final concentrations of reagents in the assay were: 0.02 mM NADP+, 0.4 mM L-aspartate, 0.45 nM TcMEc, 1 U/mL diaphorase, and 10 μM resazurin, all in 50 mM Tris-HCl buffer containing 50 mM NaCl and 2 mM MnCl2 at pH 7.5. The reaction was initiated by adding 1.32 mM L-malate.

[2] = tested on: T. cruzi Dm28c strain intracellular form infecting H9c2 rat cardiomyoblasts; experiment: T. cruzi intracellular image-based assay; assay type: cell-based, Trypanosoma cruzi; settings: Selectivity index
Procedure: (§1) Tested compounds were dissolved and serially diluted in dimethylsulfoxide (DMSO) using a half-log dilution across six concentrations. Intermediate plates were prepared by diluting compounds 1:25 in DMEM (Dulbecco’s Modified Eagle Medium) with 10% FBS (Fetal Bovine Serum). The assay was based on [Fredo Naciuk et al. (2020)], with minor modifications. Briefly, T. cruzi trypomastigotes (from LLC-MK2 cultures, 6 days post-infection) were used to infect H9c2 rat cardiomyoblasts overnight (16–18 h) at MOI 1. After washing with PBS, cells were trypsinized and resuspended in DMEM at 2.3 × 10^4 cells/mL. Then, 65 μL per well was plated in 384-well plates and incubated for 24 h (37 °C, 5% CO2, >95% humidity). Subsequently, 7.5 μL of compound solution was added (final [DMSO] 0.4%). After 72 h of treatment, cells were fixed with 4% PFA and stained with Hoechst 33342 (4 μg/mL). Six images per well were acquired using the Operetta system (PerkinElmer) and analyzed with Columbus software to quantify infected cells (≥3 cytoplasmic parasite spots).

[3] = Host cell cytotoxicity in the image-based assay (total host cells); settings: rat, H9c2 rat cardiomyoblasts (infected with T. cruzi), 72 h treatment
Procedure: as §1

[4] = Tolerability study, Hippocratic screening; assay type: in vivo, mice; design: Hypnosis / Sedation / Urination / Tachypnea / Muscle tone / Convulsions / Salivation / Tremors / Vocalization / Limb abduction / Ataxia: scale not given here; settings: 150 mg/kg PO
Procedure: A tolerability study of drug candidates was conducted using the Hippocratic screening protocol, focusing on the assessment of effects on the central nervous system (CNS) and autonomic nervous system (ANS). Each group containing 3 animals received a 150 mg/kg dose of the compounds via oral (PO) administration (gavage). During the experiment, various behavioral and physiological parameters were monitored at regular intervals, ranging from 0 to 24 hours after administration of the substance.

Chain of T. cruzi malic enzyme (TcME) (Q4DJ68 entry or part of it): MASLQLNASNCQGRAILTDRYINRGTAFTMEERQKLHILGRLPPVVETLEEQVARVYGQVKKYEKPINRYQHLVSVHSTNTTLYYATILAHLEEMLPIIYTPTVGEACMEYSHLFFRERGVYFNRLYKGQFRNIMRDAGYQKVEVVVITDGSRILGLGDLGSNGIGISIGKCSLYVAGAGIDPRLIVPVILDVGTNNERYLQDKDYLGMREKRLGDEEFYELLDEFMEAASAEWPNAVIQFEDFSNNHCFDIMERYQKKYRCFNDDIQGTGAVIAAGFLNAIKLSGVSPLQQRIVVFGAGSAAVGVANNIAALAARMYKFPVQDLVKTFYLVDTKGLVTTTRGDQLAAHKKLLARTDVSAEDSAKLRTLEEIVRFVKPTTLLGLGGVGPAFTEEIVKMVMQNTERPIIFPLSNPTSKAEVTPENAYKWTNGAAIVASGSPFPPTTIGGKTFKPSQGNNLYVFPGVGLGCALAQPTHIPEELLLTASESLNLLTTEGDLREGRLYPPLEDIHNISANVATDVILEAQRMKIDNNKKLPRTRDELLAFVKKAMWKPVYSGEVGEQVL

Structure (SMILES): CC(C)Oc1ccc(NS(=O)(=O)c2cccc(NC(=O)c3cnccn3)c2)cc1 [AC-M110, N-(3-(N-(4-isopropoxyphenyl)sulfamoyl)phenyl)pyrazine-2-carboxamide]
- IC50 [1]: 7 µM
- SI [2]: 9092
- CC50 at 72 h [3]: 63 µM
- Ataxia ([4]; 0-15 min): 0A
- Convulsions ([4]; 0-15 min): 0A
- Hypnosis ([4]; 0-15 min): 0A
- Limb abduction ([4]; 0-15 min): 0A
- Muscle tone ([4]; 0-15 min): 0A
- Pedaling ([4]; 0-15 min): 0A
- Piloerection ([4]; 0-15 min): 0A
- Ptosis ([4]; 0-15 min): 0A
- Salivation ([4]; 0-15 min): 0A
- Sedation ([4]; 0-15 min): 0A
- Tachypnea ([4]; 0-15 min): 0A
- Tremors ([4]; 0-15 min): 0A
- Urination ([4]; 0-15 min): 0A
- Vocalization ([4]; 0-15 min): 0A
- Ataxia ([4]; 15 min): 0A
- Convulsions ([4]; 15 min): 0A
- Hypnosis ([4]; 15 min): 0A
- Limb abduction ([4]; 15 min): 0A
- Muscle tone ([4]; 15 min): 0A
- Pedaling ([4]; 15 min): 0A
- Piloerection ([4]; 15 min): 0A
- Ptosis ([4]; 15 min): 0A
- Salivation ([4]; 15 min): 0A
- Sedation ([4]; 15 min): 0A
- Tachypnea ([4]; 15 min): 0A
- Tremors ([4]; 15 min): 0A
- Urination ([4]; 15 min): 0A
- Vocalization ([4]; 15 min): 0A
- Ataxia ([4]; 30 min): 0A
- Convulsions ([4]; 30 min): 0A
- Hypnosis ([4]; 30 min): 0A
- Limb abduction ([4]; 30 min): 0A
- Muscle tone ([4]; 30 min): 0A
- Pedaling ([4]; 30 min): 0A
- Piloerection ([4]; 30 min): 0A
- Ptosis ([4]; 30 min): 0A
- Salivation ([4]; 30 min): 0A
- Sedation ([4]; 30 min): 0A
- Tachypnea ([4]; 30 min): 0A
- Tremors ([4]; 30 min): 0A
- Urination ([4]; 30 min): 0A
- Vocalization ([4]; 30 min): 0A
- Ataxia ([4]; 60 min): 0A
- Convulsions ([4]; 60 min): 0A
- Hypnosis ([4]; 60 min): 0A
- Limb abduction ([4]; 60 min): 0A
- Muscle tone ([4]; 60 min): 0A
- Pedaling ([4]; 60 min): 0A
- Piloerection ([4]; 60 min): 0A
- Ptosis ([4]; 60 min): 0A
- Salivation ([4]; 60 min): 0A
- Sedation ([4]; 60 min): 0A
- Tachypnea ([4]; 60 min): 0A
- Tremors ([4]; 60 min): 0A
- Urination ([4]; 60 min): 0A
- Vocalization ([4]; 60 min): 0A
- Ataxia ([4]; 2h): 0A
- Convulsions ([4]; 2h): 0A
- Hypnosis ([4]; 2h): 0A
- Limb abduction ([4]; 2h): 0A
- Muscle tone ([4]; 2h): 0A
- Pedaling ([4]; 2h): 0A
- Piloerection ([4]; 2h): 0A
- Ptosis ([4]; 2h): 0A
- Salivation ([4]; 2h): 0A
- Sedation ([4]; 2h): 0A
- Tachypnea ([4]; 2h): 0A
- Tremors ([4]; 2h): 0A
- Urination ([4]; 2h): 0A
- Vocalization ([4]; 2h): 0A
- Ataxia ([4]; 3h): 0A
- Convulsions ([4]; 3h): 0A
- Hypnosis ([4]; 3h): 0A
- Limb abduction ([4]; 3h): 0A
- Muscle tone ([4]; 3h): 0A
- Pedaling ([4]; 3h): 0A
- Piloerection ([4]; 3h): 0A
- Ptosis ([4]; 3h): 0A
- Salivation ([4]; 3h): 0A
- Sedation ([4]; 3h): 0A
- Tachypnea ([4]; 3h): 0A
- Tremors ([4]; 3h): 0A
- Urination ([4]; 3h): 0A
- Vocalization ([4]; 3h): 0A
- Ataxia ([4]; 4h): 0A
- Convulsions ([4]; 4h): 0A
- Hypnosis ([4]; 4h): 0A
- Limb abduction ([4]; 4h): 0A
- Muscle tone ([4]; 4h): 0A
- Pedaling ([4]; 4h): 0A
- Piloerection ([4]; 4h): 0A
- Ptosis ([4]; 4h): 0A
- Salivation ([4]; 4h): 0A
- Sedation ([4]; 4h): 0A
- Tachypnea ([4]; 4h): 0A
- Tremors ([4]; 4h): 0A
- Urination ([4]; 4h): 0A
- Vocalization ([4]; 4h): 0A
- Ataxia ([4]; 24h): 0A
- Convulsions ([4]; 24h): 0A
- Hypnosis ([4]; 24h): 0A
- Limb abduction ([4]; 24h): 0A
- Muscle tone ([4]; 24h): 0A
- Pedaling ([4]; 24h): 0A
- Piloerection ([4]; 24h): 0A
- Ptosis ([4]; 24h): 0A
- Salivation ([4]; 24h): 0A
- Sedation ([4]; 24h): 0A
- Tachypnea ([4]; 24h): 0A
- Tremors ([4]; 24h): 0A
- Urination ([4]; 24h): 0A
- Vocalization ([4]; 24h): 0A
